The record followed here is the METLIN SMRT retention time set (Domingo-Almenara et al. 2019).

Each structure is given as a SMILES string.

The data set in a line: gradient 5% acetonitrile 3 min, to 50% in 2 min, to 85% in 15 min, held 3 min, 100 µL/min. To be noted: column: Zorbax Extend-C18 2.1 x 50 mm; eluents: water / acetonitrile, 0.1% formic acid. The essentials: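 Data were gathered over 3 months by HPLC coupled to a quadrupole time-of-flight mass spectrometer, operated in positive and negative ionization mode. Mixtures of ~100 pure standards ran on a Zorbax Extend-C18 column (2.1 × 50 mm, 1.8 μm) at 100 μL/min, with water and acetonitrile each containing 0.1% formic acid and dead and dwell volumes of 40 μL and 900 μL. Retention time was read from adduct peaks picked by computer and checked manually.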
Turning to `NC(N)=NCCC[C@H](NC(=O)[C@@H]1CCCN1C(=O)[C@H](N)Cc1ccccc1)C(=O)CCl`, the RP-LC retention time turned out to be 1100 s.

`O=C(NCc1ccc(F)cc1)C1CCCN(c2ccc3cc(S(=O)(=O)N4CCCC4)ccc3n2)C1` (configuration not stated) showed an RP-LC retention time of 754 s.

`CCN1C(=O)c2cccnc2Sc2cc(NC(=O)c3ccccn3)ccc21` showed an RP-LC retention time of 802 s.

Compound `CCOc1ccc(-c2nc(-c3ccc4c(c3)oc(=O)n4C(C)C)no2)cc1` gave an RP-LC retention time of 1230 s.

`CC(C)N(C(=O)Cn1c(CN2CCCCC2)nc2ccccc21)c1ccccc1`: the RP-LC retention time came to 738 s.

The compound `Cc1cc(C)n2cc(CSc3nc4cc([N+](=O)[O-])ccc4s3)nc2n1` returned an RP-LC retention time of 623 s.

As to `Cc1ccc(C2=NC3(CCN(C(=O)c4ccc(C#N)cc4)CC3)ON2)cc1`, the RP-LC retention time is 776 s.

Turning to `Cn1c(SCC(=O)N2CCCc3ccccc32)nc2cc(-c3ccccc3)sc2c1=O`, the RP-LC retention time turned out to be 1180 s.

Compound `O=C(C1Cc2ccccc2CN1S(=O)(=O)c1cccs1)N1CCCCCC1` (configuration not stated) showed an RP-LC retention time of 932 s.

Take `Cc1[nH]c(C(=O)N2CCC(CC(=O)NCc3ccc(Cl)cc3)CC2)c(C)c1C(=O)OC(C)C`: the RP-LC retention time turned out to be 878 s.

Regarding `COCc1c(C(=O)O)nnn1-c1ccc2c(c1)OCCO2`, the RP-LC retention time came to 666 s.

As to `Cc1ccc(CNC(=O)C2CCCN(c3nnc4ccc(Cl)cn34)C2)o1` (configuration not stated), the RP-LC retention time was determined as 740 s.

For `O=C(Cc1csc(-c2ccccc2)n1)Nc1nc(-c2ccccc2)cs1`, the RP-LC retention time was found to be 1130 s.

Compound `O=C(c1ccc(Br)cc1)N1CCC(n2c(-c3ccoc3)nc3cccnc32)C1` (configuration not stated) showed an RP-LC retention time of 783 s.

`CCCOc1ccc(CN2CCN(C(=O)c3ccoc3)CC2)cn1` displayed an RP-LC retention time of 679 s.

Compound `CC(Oc1ccc(F)cc1)C(=O)Nc1ccc(-c2nc(-c3ccc(F)cc3)no2)cc1` (configuration not stated) returned an RP-LC retention time of 1290 s.

Consider `COCCC1CCN(C(=O)CN(C)C(=O)COc2ccccc2)CC1`, for which the RP-LC retention time turned out to be 694 s.

For the compound `CCN1CCN(C(=O)C2Cn3cccc3C(=O)N2CC(C)C)CC1` (configuration not stated), the RP-LC retention time worked out at 573 s.

Compound `Cn1c(=O)c2cc(C(=O)N3CCN(C(=O)c4ccco4)CC3)sc2n(C)c1=O` registered an RP-LC retention time of 574 s.

The compound `Cc1ccc(C(=O)N2C[C@@H]3C[C@H]2C[C@@H]3NS(C)(=O)=O)cc1F` registered an RP-LC retention time of 676 s.

`CC(C)Oc1ccc(CNC(=O)C2CCCN(c3ccc(=O)n(-c4ccc(F)cc4)n3)C2)cc1` (configuration not stated) came in with an RP-LC retention time of 900 s.

Consider `CSc1ccc(NC(=O)Nc2cc(C)ccn2)cc1`, for which the RP-LC retention time was determined as 782 s.

The compound `O=C1NC2=C(C(=O)N(CCC3=CCCCC3)C2)C(c2ccccc2F)N1` (configuration not stated) yielded an RP-LC retention time of 684 s.

On to `COC[C@@H]1CN(c2cnccn2)C[C@H]1C(=O)NCc1ccc(C)o1`, for which the RP-LC retention time worked out at 636 s.

Consider `CCOc1ccccc1-c1nc(-c2ccc3oc(CC)nc3c2)no1`, for which the RP-LC retention time turned out to be 1210 s.

`COc1ccccc1-c1nc(Cn2nnc(-c3nc(-c4cccc(F)c4)no3)c2C)c(C)o1` displayed an RP-LC retention time of 1130 s.

Compound `CC(C)Cc1ccc([C@H](C)C(=O)O)cc1` had an RP-LC retention time of 1040 s.

On to `Cc1ccc(-c2noc(Cn3c(=O)n(Cc4ccccc4Cl)c(=O)c4sccc43)n2)cc1C`, for which the RP-LC retention time came out at 1290 s.

Compound `CN(Cc1ccccc1)C(=O)c1cc2c(n1C)CCN(Cc1cccc(F)c1)C2` had an RP-LC retention time of 681 s.

`COc1cccc(S(=O)(=O)N2CCC([C@H]3[C@@H](OC)C(=O)N3C(C)C)CC2)c1` had an RP-LC retention time of 868 s.

`CCCSCCCNC(=O)COc1ccccc1-c1nnc(-c2ccccc2)o1` returned an RP-LC retention time of 1160 s.

On to `O=C(NC1CCCC1)C1CC(=O)N(CCc2c[nH]c3ccc(Cl)cc23)C1` (configuration not stated), for which the RP-LC retention time was found to be 769 s.
